In brackets after ≈: the same amount, converted by molar mass.
How the values were obtained:
[1] = test system: Mycobacterium smegmatis (ATCC607); test: In-vitro anti-bacterial activity against strain M. Smegmatis ATCC607; type: cell-based; conditions: 90% inhibitory concentration for bacterial growth, Alamar Blue fluorescence; for IC90 MSM 607: 48 hours; for IC90: Mycolicibacterium smegmatis, ATCC607, 48 h, read-out: IC90 MSM 607
How it was run: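 IC90 (μg/ml) derived from Alamar Blue fluorescence (530/590 nm) after 48 h growth at 37 °C under 5% CO2. About 250 CFU per well in Mueller-Hinton broth faced five-fold serial compound dilutions in BSA-containing wells.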

[2] = test system: Staphylococcus aureus (ATCC29213); test: In-vitro anti-bacterial activity, microtitre plate assay, IC90 determination (non-mycobacterial strains); type: cell-based; conditions: 90% inhibitory concentration for bacterial growth, resazurin fluorescence; for IC90: Staphylococcus aureus, ATCC29213, 24 h, read-out: IC90 STA B29213; for IC90 STA B29213: 24 hours
How it was run: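 Growth inhibition measured fluorometrically with resazurin (530/590 nm) after overnight 37 °C incubation under normal atmosphere. Bacteria added at roughly 100 TCID50 per well in Mueller-Hinton broth to five-fold compound dilution series; IC90 reported in μg/ml.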

Row | IC90 MSM 607 [1] | IC90 [2] | IC90 STA B29213 [2] | IC90 [1] | Compound
1 | 11.06 µg/mL (≈ 21.2 µM) | > 13.9 µg/mL |  |  | Cc1cc(F)ccc1C1CC(O)(C(c2ccccc2)c2cc3cc(S(C)(=O)=O)ccc3[nH]c2=O)CCN1 (stereo not drawn) [Compound 237]
2 | >13.99 µg/mL |  | >13.99 µg/mL |  | Cc1cc(F)ccc1C1CC(O)(C(c2ccccc2)c2cc3cc(S(C)(=O)=O)ccc3[nH]c2=O)CCN1 (stereo not drawn) [Compound 238]
3 | 2.97 µg/mL (≈ 6.02 µM) |  | 1.67 µg/mL (≈ 3.38 µM) |  | O=c1[nH]c2ccc(Cl)cc2cc1C(c1ccc(Cl)cc1)C1(O)CCNC(Cc2ccccc2)C1 (stereo not drawn) [Compound 239]
4 | 4.21 µg/mL (≈ 8.53 µM) |  | 6.67 µg/mL (≈ 13.5 µM) |  | O=c1[nH]c2ccc(Cl)cc2cc1C(c1ccc(Cl)cc1)C1(O)CCNC(Cc2ccccc2)C1 (stereo not drawn) [Compound 240]
5 | 3.34 µg/mL (≈ 6.77 µM) |  | 4.72 µg/mL (≈ 9.57 µM) |  | O=c1[nH]c2ccc(Cl)cc2cc1C(c1ccc(Cl)cc1)C1(O)CCNC(Cc2ccccc2)C1 (stereo not drawn) [Compound 241]
6 |  |  | 1.51 µg/mL (≈ 2.81 µM) | 1.2 µg/mL (≈ 2.23 µM) | COc1nc2ccc(SC)cc2cc1C(c1ccc(Cl)cc1)C1(O)CCNC(c2ccc(F)cc2C)C1 (stereo not drawn) [Compound 242]
7 | >13.43 µg/mL |  | >13.43 µg/mL |  | COc1nc2ccc(S(C)(=O)=O)cc2cc1C(c1ccccc1)C1(O)CCNC(c2ccc(F)cc2C)C1 (stereo not drawn) [Compound 253]
8 | 3.60 µg/mL (≈ 6.62 µM) | 3.6 µg/mL (≈ 6.62 µM) |  |  | O=c1[nH]c2ccc(Br)cc2cc1C(c1ccc(Cl)cc1)C1(O)CCNC(CC2CCCCC2)C1 (stereo not drawn) [Compound 254]
9 | 7.28 µg/mL (≈ 13.4 µM) |  | 3.65 µg/mL (≈ 6.71 µM) |  | O=c1[nH]c2ccc(Br)cc2cc1C(c1ccc(Cl)cc1)C1(O)CCNC(CC2CCCCC2)C1 (stereo not drawn) [Compound 255]
10 | 3.66 µg/mL (≈ 6.73 µM) |  | 3.66 µg/mL (≈ 6.73 µM) |  | O=c1[nH]c2ccc(Br)cc2cc1C(c1ccc(Cl)cc1)C1(O)CCNC(CC2CCCCC2)C1 (stereo not drawn) [Compound 258]
11 | >13.89 µg/mL |  | >13.89 µg/mL |  | Cc1cc(F)ccc1C1CC(O)(C(c2ccccc2)c2cc3cc(S(C)(=O)=O)ccc3[nH]c2=O)CCN1 (stereo not drawn) [Compound 263]
12 | 3.49 µg/mL (≈ 6.7 µM) |  | >13.88 µg/mL |  | Cc1cc(F)ccc1C1CC(O)(C(c2ccccc2)c2cc3cc(S(C)(=O)=O)ccc3[nH]c2=O)CCN1 (stereo not drawn) [Compound 264]
13 | 13.92 µg/mL (≈ 26.7 µM) |  | >13.92 µg/mL |  | Cc1cc(F)ccc1C1CC(O)(C(c2ccccc2)c2cc3cc(S(C)(=O)=O)ccc3[nH]c2=O)CCN1 (stereo not drawn) [Compound 265]
14 |  | 2.5 µg/mL (≈ 4.78 µM) |  | 2.22 µg/mL (≈ 4.24 µM) | CSc1ccc2[nH]c(=O)c(C(c3ccc(Cl)cc3)C3(O)CCNC(c4ccc(F)cc4C)C3)cc2c1 (stereo not drawn) [Compound 266]
15 | 1.40 µg/mL (≈ 2.68 µM) |  | 1.76 µg/mL (≈ 3.36 µM) |  | CSc1ccc2[nH]c(=O)c(C(c3ccc(Cl)cc3)C3(O)CCNC(c4ccc(F)cc4C)C3)cc2c1 (stereo not drawn) [Compound 268]
16 | >14.75 µg/mL |  | >14.75 µg/mL |  | Cc1cc(F)ccc1C1CC(O)(C(c2cccc(Cl)c2)c2cc3cc(S(C)(=O)=O)ccc3[nH]c2=O)CCN1 (stereo not drawn) [Compound 269]
17 | 5.89 µg/mL (≈ 10.6 µM) |  | 7.42 µg/mL (≈ 13.4 µM) |  | Cc1cc(F)ccc1C1CC(O)(C(c2cccc(Cl)c2)c2cc3cc(S(C)(=O)=O)ccc3[nH]c2=O)CCN1 (stereo not drawn) [Compound 270]
18 | 9.34 µg/mL (≈ 16.8 µM) |  | 7.42 µg/mL (≈ 13.4 µM) |  | Cc1cc(F)ccc1C1CC(O)(C(c2cccc(Cl)c2)c2cc3cc(S(C)(=O)=O)ccc3[nH]c2=O)CCN1 (stereo not drawn) [Compound 271]
19 | >14.78 µg/mL |  | >14.78 µg/mL |  | Cc1cc(F)ccc1C1CC(O)(C(c2cccc(Cl)c2)c2cc3cc(S(C)(=O)=O)ccc3[nH]c2=O)CCN1 (stereo not drawn) [Compound 272]
20 | 1.07 µg/mL (≈ 1.99 µM) |  | 1.91 µg/mL (≈ 3.56 µM) |  | COc1nc2ccc(SC)cc2cc1C(c1ccc(Cl)cc1)C1(O)CCNC(c2ccc(F)cc2C)C1 (stereo not drawn) [Compound 274]
21 | 1.07 µg/mL (≈ 1.99 µM) |  | 1.70 µg/mL (≈ 3.17 µM) |  | COc1nc2ccc(SC)cc2cc1C(c1ccc(Cl)cc1)C1(O)CCNC(c2ccc(F)cc2C)C1 (stereo not drawn) [Compound 276]

— US9617244B2, “Antibacterial quinoline derivatives” (JANSSEN PHARMACEUTICA NV, priority 2012, dated 2017)
